Active and inactive are the calls of the source. The rule behind the calls is not given here.
What was measured:
Quadruplex DNA = assay: Stabilization of G-quadruplex 5-FAM-telomeric24 DNA-TAMRA-3 (unknown origin) assessed as change in melting temperature incubated for 2 hrs by FRET assay; assay type: nucleic-acid assay
[1] = Cytotoxicity against human MCF-10A cells incubated for 24 hrs by CCK-8 reagent based spectrophotometric analysis; assay type: toxicity, cell-based
MDA-MB-231 = assay: Cytotoxicity against human MDA-MB-231 cells incubated for 24 hrs by CCK-8 reagent based spectrophotometric analysis; assay type: functional, cell-based; conditions: MDA-MB-231, 24 h
4T1 [2] = assay: Cytotoxicity against mouse 4T1 cells incubated for 24 hrs by CCK-8 reagent based spectrophotometric analysis; assay type: functional, cell-based; conditions: 4T1, 24 h
MCF7 = assay: Cytotoxicity against human MCF7 cells incubated for 24 hrs by CCK-8 reagent based spectrophotometric analysis; assay type: functional, cell-based; conditions: MCF7, 24 h
U2OS = assay: Cytotoxicity against human U2OS cells incubated for 24 hrs by CCK-8 reagent based spectrophotometric analysis; assay type: functional, cell-based
BMDC = assay: Induction of immunogenic cell death in BALB/c mouse BMDC cells co-cultured with mouse 4T1 cells assessed as increase in CD11c+ CD80+ CD86 cells maturation at 5 uM incubated for 24 hrs by flow cytometry (reference value: 69.4 %); assay type: functional
4T1 [3] = assay: Antitumor activity against mouse 4T1 cells implanted in BALB/c mouse assessed as reduction in tumor weight at 2 mg/kg,ip every other day for 14 days; assay type: functional, organism-based; conditions: time 14.0 day
[4] = Toxicity in BALB/c mouse implanted with mouse 4T1 cells assessed as decrease in body weight at 2 mg/kg,ip every other day for 14 days; assay type: organism-based; conditions: in vivo, 336 h, time 14 day
[5] = Toxicity in BALB/c mouse implanted with mouse 4T1 cells assessed as decrease in heart weight at 2 mg/kg,ip every other day for 14 days; assay type: organism-based; conditions: in vivo, 336 h, time 14 day
[6] = Toxicity in BALB/c mouse implanted with mouse 4T1 cells assessed as decrease in liver weight at 2 mg/kg,ip every other day for 14 days; assay type: organism-based; conditions: in vivo, 336 h, time 14 day
[7] = Toxicity in BALB/c mouse implanted with mouse 4T1 cells assessed as decrease in spleen weight at 2 mg/kg,ip every other day for 14 days; assay type: organism-based; conditions: in vivo, 336 h, time 14 day
[8] = Toxicity in BALB/c mouse implanted with mouse 4T1 cells assessed as decrease in lung weight at 2 mg/kg,ip every other day for 14 days; assay type: organism-based; conditions: in vivo, 336 h, time 14 day
[9] = Toxicity in BALB/c mouse implanted with mouse 4T1 cells assessed as decrease in kidney weight at 2 mg/kg,ip every other day for 14 days; assay type: organism-based; conditions: in vivo, 336 h, time 14 day
4T1 [10] = assay: Antitumor activity against mouse 4T1 cells implanted in BALB/c mouse assessed as damage in tumor tissue at 2 mg/kg,ip every other day for 14 days by hematoxylin and eosin staining analysis; assay type: functional, organism-based; conditions: time 14.0 day
4T1 [11] = assay: Antitumor immunity against mouse 4T1 cells implanted in BALB/c mouse assessed as increase in proportion of CD4+ T cells in spleen at 2 mg/kg,ip every other day for 14 days by flow cytometry; assay type: functional, organism-based; conditions: time 14.0 day
4T1 [12] = assay: Antitumor immunity against mouse 4T1 cells implanted in BALB/c mouse assessed as increase in proportion of CD8+ T cells in spleen at 2 mg/kg,ip every other day for 14 days by flow cytometry; assay type: functional, organism-based; conditions: time 14.0 day
4T1 [13] = assay: Antitumor immunity against mouse 4T1 cells implanted in BALB/c mouse assessed as increase in proportion of CD4+ T cells in tumor at 2 mg/kg,ip every other day for 14 days by flow cytometry; assay type: functional, organism-based; conditions: time 14.0 day
4T1 [14] = assay: Antitumor immunity against mouse 4T1 cells implanted in BALB/c mouse assessed as increase in proportion of CD8+ T cells in tumor at 2 mg/kg,ip every other day for 14 days by flow cytometry; assay type: functional, organism-based; conditions: time 14.0 day
4T1 [15] = assay: Antitumor immunity against mouse 4T1 cells implanted in BALB/c mouse assessed as increase in proportion of CD4+ T cells in tumor at 2 mg/kg,ip every other day for 14 days by immunohistochemistry staining based analysis; assay type: functional, organism-based; conditions: time 14.0 day
4T1 [16] = assay: Antitumor immunity against mouse 4T1 cells implanted in BALB/c mouse assessed as increase in proportion of CD8+ T cells in tumor at 2 mg/kg,ip every other day for 14 days by immunohistochemistry staining based analysis; assay type: functional, organism-based; conditions: time 14.0 day
4T1 [17] = assay: Antitumor immunity against mouse 4T1 cells implanted in BALB/c mouse assessed as increase in serum IL-6 level at 2 mg/kg,ip every other day for 14 days by ELISA; assay type: functional, organism-based; conditions: time 14.0 day
4T1 [18] = assay: Antitumor immunity against mouse 4T1 cells implanted in BALB/c mouse assessed as increase in serum TNF-alpha level at 2 mg/kg,ip every other day for 14 days by ELISA; assay type: functional, organism-based; conditions: time 14.0 day

Structure (SMILES) | ΔTm (Quadruplex DNA) | IC50 at 24 h [1] | IC50 (MDA-MB-231) | IC50 (4T1 [2]) | IC50 (MCF7) | IC50 (U2OS) | further results
COc1ccc2nc(-c3ccc(N(C)CCN(C)C)cc3)c(-c3ccc(N(C)CCN(C)C)cc3)nc2c1 | 6.6 °C | 13.7 µM | 6.2 µM | 9.4 µM | 5.8 µM | 8.8 µM | 
CN(CCO)c1ccc(-c2nc3ccc(F)cc3nc2-c2ccc(N(C)CCO)cc2)cc1 | 0.4 °C | 18 µM | 33.2 µM | 31.6 µM | > 40 µM | > 40 µM | 
CN(CCO)c1ccc(-c2nc3ccc(C(F)(F)F)cc3nc2-c2ccc(N(C)CCO)cc2)cc1 | 0.5 °C | 20.5 µM | > 40 µM | > 40 µM | > 40 µM | 19.3 µM | 
CN(C)CCN(C)c1ccc(-c2nc3cc4ccccc4cc3nc2-c2ccc(N(C)CCN(C)C)cc2)cc1 | 7.9 °C | 1.3 µM | 1.4 µM | 2.9 µM | 1.9 µM | 1.5 µM | 
CN(C)CCN(C)c1ccc(-c2nc3ccc(F)cc3nc2-c2ccc(N(C)CCN(C)C)cc2)cc1 | 6 °C | 8.8 µM | 3.1 µM | 5.6 µM | 4.2 µM | 3.1 µM | 
COc1cccc2c1C(=O)c1c(O)c3c(c(O)c1C2=O)C[C@@](O)(C(=O)CO)C[C@@H]3O[C@H]1C[C@H](N)[C@H](O)[C@H](C)O1 [DOXORUBICIN] |  |  |  |  |  |  | Activity (BMDC): 81.5%; Activity (4T1 [3]): Active; Activity [4]: Toxic; Activity [5]: Toxic; Activity [6]: Toxic; Activity [7]: Toxic; Activity [8]: Toxic; Activity [9]: Toxic; Activity (4T1 [10]): Active; Activity (4T1 [11]): Active; Activity (4T1 [12]): Active; Activity (4T1 [13]): Active; Activity (4T1 [14]): Active; Activity (4T1 [15]): Active; Activity (4T1 [16]): Active; Activity (4T1 [17]): Active; Activity (4T1 [18]): Active
COc1ccc2nc(-c3ccc(N(C)CCO)cc3)c(-c3ccc(N(C)CCO)cc3)nc2c1 | 0.1 °C | 24.1 µM | > 40 µM | > 40 µM | > 40 µM | > 40 µM | 
CN(CCO)c1ccc(-c2nc3cc4ccccc4cc3nc2-c2ccc(N(C)CCO)cc2)cc1 | 0.9 °C | 11.1 µM | 20.9 µM | 36.4 µM | > 40 µM | > 40 µM | 

Continued, in another order:

ΔTm (Quadruplex DNA) | Structure (SMILES) | IC50 at 24 h [1] | IC50 (MDA-MB-231) | IC50 (4T1 [2]) | IC50 (MCF7) | IC50 (U2OS) | further results
6.6 °C | CN(C)CCN1CCN(c2ccc(-c3nc4ccc(C(F)(F)F)cc4nc3-c3ccc(N4CCN(CCN(C)C)CC4)cc3)cc2)CC1 | 1.5 µM | 2 µM | 1.7 µM | 4.3 µM | 3.5 µM | 
3.2 °C | OCCN1CCN(c2ccc(-c3nc4ccc(F)cc4nc3-c3ccc(N4CCN(CCO)CC4)cc3)cc2)CC1 | 6.3 µM | 1.8 µM | 12.9 µM | 10.5 µM | 4.5 µM | 
4.1 °C | COc1ccc2nc(-c3ccc(N4CCN(CCO)CC4)cc3)c(-c3ccc(N4CCN(CCO)CC4)cc3)nc2c1 | 6.7 µM | 1.3 µM | 22.1 µM | 15.9 µM | 8 µM | 
1.5 °C | OCCN1CCN(c2ccc(-c3nc4ccc(C(F)(F)F)cc4nc3-c3ccc(N4CCN(CCO)CC4)cc3)cc2)CC1 | 4.1 µM | 2 µM | 4.3 µM | 6.3 µM | 3.7 µM | 
1.9 °C | OCCN1CCN(c2ccc(-c3nc4cc5ccccc5cc4nc3-c3ccc(N4CCN(CCO)CC4)cc3)cc2)CC1 | 2.8 µM | 2.5 µM | 4.9 µM | 18.4 µM | 6.6 µM | 
8.3 °C | CN(C)CCN1CCN(c2ccc(-c3nc4ccc(F)cc4nc3-c3ccc(N4CCN(CCN(C)C)CC4)cc3)cc2)CC1 | 2.7 µM | 2.9 µM | 2.3 µM | 6.1 µM | 3.6 µM | 
5.6 °C | COc1ccc2nc(-c3ccc(N4CCN(CCN(C)C)CC4)cc3)c(-c3ccc(N4CCN(CCN(C)C)CC4)cc3)nc2c1 | 3.4 µM | 2.3 µM | 5.3 µM | 9.5 µM | 6.9 µM | 
5.7 °C | CN(C)CCN1CCN(c2ccc(-c3nc4cc5ccccc5cc4nc3-c3ccc(N4CCN(CCN(C)C)CC4)cc3)cc2)CC1 | 3.7 µM | 5.2 µM | 4 µM | 8.4 µM | 13.3 µM | 

From ChEMBL document CHEMBL5550165, “Novel quinoxaline analogs as telomeric G-quadruplex ligands exert antitumor effects related to enhanced immunomodulation” (Eur J Med Chem, 2024)
